A word on the IC50: it is the midpoint of a concentration-inhibition curve.

The structures appear in SMILES notation.

IC50 data for 26 compounds are collected here from US11708344B2, “Flavone derivatives for the treatment and prophylaxis of hepatitis B virus disease” (Hoffmann-La Roche Inc., priority 2018, dated 2023).

The first test has as its system HBeAg (surrogate marker for cccDNA) in HepDES19 cells. Kind of test: Engineered HepDES19 primary screen assay (HBeAg ELISA). In kind it is cell-based, HBV. As to conditions: HepDES19 cells, 5 days compound incubation, HBeAg ELISA; read-out: IC50 (HBeAg level, HepDES19 primary screen assay). The text has this: The assay was employed to screen for novel cccDNA inhibitors. HepDES19 is a cccDNA-producing cell line. In this cell line, HBeAg in the cell culture supernatant as surrogate marker, as HBeAg production depends on cccDNA level and activity. HepDES19 is an engineered cell line which contains a 1.1 unit length HBV genome, and pgRNA transcription from the transgene is controlled by Tetracycline (Tet). In the absence of Tet, pgRNA transcription will be induced, but HBV e antigen (HBeAg) could not be produced from this pgRNA due to very short leader sequence before the HBeAg start codon and the start codon is disrupted. Only after cccDNA is formed, the missing leader sequence and start codon mutation would be restored from the 3′-terminal redundancy of pgRNA, and then HBeAg could be synthesized. Therefore, HBeAg could be used as a surrogate marker for cccDNA (Zhou, T. et al., Antiviral Res. (2006), 72(2), 116-124; Guo, H. et al., J. Virol. (2007), 81(22), 12472-12484).
HepDES19 cells were seeded at 2×10^6 cells per T150 flask and cultured with the culture medium (Dulbecco's Modified Eagle Medium: Nutrient Mixture F-12 [DMEM-F12, Gibco Cat. 11320-82], 10% Fetal Bovine Serum [FBS, Clontech Cat. 631101], 0.1 mM Non-Essential Amino Acids Solution [NEAA, Gibco Cat. 11140-050], 50 μg/mL Penicillin-Streptomycin [PS, Invitrogen Cat. 15140-163], 500 μg/mL Geneticin [G418, Invitrogen Cat. 10131-027]) containing 3 μg/mL Tet (Sigma, Cat. 87128) for 5 days. Cells were then seeded at 4×10^6 cells per T150 in the same culture medium as described above in the absence of Tet for 8 days. Cells were then harvested and frozen at density of 2×10^6 cells per mL. For compound testing, the frozen cells were thawed and seeded into 96-well plates at a density of 6×10^4 cells per well. At 24 hours after seeding, half log serial dilutions of compounds made with Dimethyl sulfoxide (DMSO, Sigma, Cat. D2650) were further diluted with the same culture medium as described above before they were added to the cells to reach desired final compound concentrations and 1% DMSO concentration. Plates were then incubated at 37° C. for another 5 days before measurement of HBeAg level and cell viability. […] HBeAg level were measured with enzyme-linked immunosorbent assay (ELISA) kit (Shanghai Kehua Diagnostic Medical Products Co., Ltd). Cell viability was assessed using Cell Counting Kit-8 (DonJindo, Cat. CK04-20). IC50 values were derived from the dose-response curve using 4 parameter logistic curve fit method.
The compounds of the present invention were tested for their capacity to inhibit extracellular HBeAg level as described herein.
For orientation: An ELISA detects its analyte on a solid surface through an enzyme-linked reagent.
On to `O=c1cc(-c2ccc(Br)cc2OCCO[C@H]2C[C@H](C(=O)O)C2)oc2c(Cl)ccc(C(F)(F)F)c12` [Example C049-B], for which the IC50 turned out to be 103 nM.

The test is the same for the next values; noted with them: Hepatitis B virus, HepDES19, 120 h, read-out: IC50 (HBeAg level, HepDES19 primary screen assay), HepDES19 cells, 5 days compound incubation, HBeAg ELISA.
Take `O=c1cc(-c2ccc(Br)cc2OCCO[C@H]2C[C@H](C(=O)O)C2)oc2c(Cl)cccc12` [Example C003-B, tram-3-[2-[5-bromo-2-(8-chloro-4-oxo-chromen-2-yl)phenoxy]ethoxy]cyclobutanecarboxylic acid]: the IC50 was found to be 1340 nM.

In the case of `O=C(O)C1CC(OCCOc2cc(Cl)ccc2-c2cc(=O)c3cccc(Cl)c3o2)C1` (centres unmarked) [Example C004, 3-[2-[5-chloro-2-(8-chloro-4-oxo-chromen-2-yl)phenoxy]ethoxy]cyclobutanecarboxylic acid], the IC50 was determined as 1320 nM.

Take `Cc1ccc2c(=O)cc(-c3ccccc3OCCO[C@H]3C[C@@H](C(=O)O)C3)oc2c1Cl` [Example C029-A, Cis-3-[2-[2-(8-chloro-7-methyl-4-oxo-chromen-2-yl)phenoxy]ethoxy]cyclobutanecarboxylic acid]: the IC50 amounted to 3360 nM.

For `Cc1ccc2c(=O)cc(-c3ccccc3OCCO[C@H]3C[C@H](C(=O)O)C3)oc2c1Cl` [Example C029-B, Trans-3-[2-[2-(8-chloro-7-methyl-4-oxo-chromen-2-yl)phenoxy]ethoxy]cyclobutanecarboxylic acid], the IC50 amounted to 1320 nM.

As to `O=c1cc(-c2ccc(Br)cc2OCCO[C@H]2C[C@@H](C(=O)O)C2)oc2c(Cl)c(F)ccc12` [Example C030-A, Cis-3-[2-[5-bromo-2-(8-chloro-7-fluoro-4-oxo-chromen-2-yl)phenoxy]ethoxy]cyclobutanecarboxylic acid], the IC50 was 1370 nM.

With `O=c1cc(-c2ccc(Br)cc2OCCO[C@H]2C[C@H](C(=O)O)C2)oc2c(Cl)c(F)ccc12` [Example C030-B, Trans-3-[2-[5-bromo-2-(8-chloro-7-fluoro-4-oxo-chromen-2-yl)phenoxy]ethoxy]cyclobutanecarboxylic acid], the IC50 worked out at 12800 nM.

Turning to `COc1cc(OCCO[C@H]2C[C@H](C(=O)O)C2)c(-c2cc(=O)c3cccc(Cl)c3o2)cc1Br` [Example C040-B, Trans-3-[2-[4-bromo-2-(8-chloro-4-oxo-chromen-2-yl)-5-methoxy-phenoxy]ethoxy]cyclobutanecarboxylic acid], the IC50 worked out at 17100 nM.

With `COc1cc(OCCO[C@H]2C[C@H](C(=O)O)C2)c(-c2cc(=O)c3cccc(Cl)c3o2)cc1C` [Example C041-B, Trans-3-[2-[2-(8-chloro-4-oxo-chromen-2-yl)-5-methoxy-4-methyl-phenoxy]ethoxy]cyclobutanecarboxylic acid], the concentration for half-maximal inhibition (IC50) is 9640 nM.

In the case of `O=c1cc(-c2ccc(Br)cc2OCCO[C@H]2C[C@@H](C(=O)O)C2)oc2c(Cl)c(C(F)(F)F)ccc12` [Example C048-A, Cis-3-[2-[5-bromo-2-[8-chloro-4-oxo-7-(trifluoromethyl)chromen-2-yl]phenoxy]ethoxy]cyclobutanecarboxylic acid], the half-maximal inhibitory concentration (IC50) worked out at 5120 nM.

For the compound `O=c1cc(-c2cc(Br)ccc2OCCO[C@H]2C[C@H](C(=O)O)C2)oc2c(Cl)cc(F)cc12` [Example C053-B, Trans-3-[2-[4-bromo-2-(8-chloro-6-fluoro-4-oxo-chromen-2-yl)phenoxy]ethoxy]cyclobutanecarboxylic acid], the IC50 came to 5590 nM.

With `O=c1cc(-c2ccc(Br)cc2OCCCO[C@H]2C[C@H](C(=O)O)C2)oc2c(Cl)cccc12` [Example C056-B, Trans-3-[3-[5-bromo-2-(8-chloro-4-oxo-chromen-2-yl)phenoxy]propoxy]cyclobutanecarboxylic acid], the IC50 was determined as 2180 nM.

As for `O=c1cc(-c2ccccc2OCCO[C@H]2C[C@@H](C(=O)O)C2)oc2c(Cl)c(C3CC3)ccc12` [Example C058-A, Cis-3-[2-[2-(8-chloro-7-cyclopropyl-4-oxo-chromen-2-yl)phenoxy]ethoxy]cyclobutanecarboxylic acid], the IC50 was determined as 5100 nM.

Regarding `O=C(O)C1CC(OCCOc2cnccc2-c2cc(=O)c3cccc(Cl)c3o2)C1` (centres unmarked) [Example C061, 3-[2-[[4-(8-chloro-4-oxo-chromen-2-yl)-3-pyridyl]oxy]ethoxy]cyclobutanecarboxylic acid], the IC50 is 3350 nM.

Turning to `COC(=O)C1CC(OCCOc2cc(N3CCOC3=O)ccc2-c2cc(=O)c3cccc(Cl)c3o2)C1` (centres unmarked) [Example C062a, methyl 3-[2-[2-(8-chloro-4-oxo-chromen-2-yl)-5-(2-oxooxazolidin-3-yl)phenoxy]ethoxy]cyclobutanecarboxylate], the IC50 was found to be 2450 nM.

Take `O=C1CCCN1c1ccc(-c2cc(=O)c3cccc(Cl)c3o2)c(OCCO[C@H]2C[C@H](C(=O)O)C2)c1` [Example C063-B, Trans-3-[2-[2-(8-chloro-4-oxo-chromen-2-yl)-5-(2-oxopyrrolidin-1-yl)phenoxy]ethoxy]cyclobutanecarboxylic acid]: the IC50 is 14900 nM.

`CSc1ccc(-c2cc(=O)c3cccc(Cl)c3o2)c(OCCO[C@H]2C[C@@H](C(=O)O)C2)c1` [Example C064-A, Cis-3-[2-[2-(8-chloro-4-oxo-chromen-2-yl)-5-methylsulfanyl-phenoxy]ethoxy]cyclobutanecarboxylic acid]: the IC50 stood at 1940 nM.

In the case of `CSc1ccc(-c2cc(=O)c3cccc(Cl)c3o2)c(OCCO[C@H]2C[C@H](C(=O)O)C2)c1` [Example C064-B, trans-3-[2-[2-(8-chloro-4-oxo-chromen-2-yl)-5-methylsulfanyl-phenoxy]ethoxy]cyclobutanecarboxylic acid], the IC50 turned out to be 2930 nM.

As for `COC(=O)[C@H]1C[C@H](OCCOc2cc(S(C)(=O)=O)ccc2-c2cc(=O)c3cccc(Cl)c3o2)C1` [Example C065-B, Trans-methyl 3-[2-[2-(8-chloro-4-oxo-chromen-2-yl)-5-methylsulfonyl-phenoxy]ethoxy]cyclobutanecarboxylate], the IC50 worked out at 12200 nM.

Regarding `O=c1cc(-c2ccc(-c3nccs3)cc2OCCO[C@H]2C[C@@H](C(=O)O)C2)oc2c(Cl)cccc12` [Example C066-A, Cis-3-[2-[2-(8-chloro-4-oxo-chromen-2-yl)-5-thiazol-2-yl-phenoxy]ethoxy]cyclobutanecarboxylic acid], the IC50 was determined as 1020 nM.

Consider `O=c1cc(-c2ccc(-c3nccs3)cc2OCCO[C@H]2C[C@H](C(=O)O)C2)oc2c(Cl)cccc12` [Example C066-B, Trans-3-[2-[2-(8-chloro-4-oxo-chromen-2-yl)-5-thiazol-2-yl-phenoxy]ethoxy]cyclobutanecarboxylic acid], for which the IC50 was determined as 1020 nM.

Consider `O=c1cc(-c2ccc(C3CC3)cc2OCCO[C@H]2C[C@@H](C(=O)O)C2)oc2c(Cl)cccc12` [Example C069-A, Cis-3-[2-[2-(8-chloro-4-oxo-chromen-2-yl)-5-cyclopropyl-phenoxy]ethoxy]cyclobutanecarboxylic acid], for which the IC50 turned out to be 5090 nM.

As for `O=c1cc(-c2ccc(C3CC3)cc2OCCO[C@H]2C[C@H](C(=O)O)C2)oc2c(Cl)cccc12` [Example C069-B, Trans-3-[2-[2-(8-chloro-4-oxo-chromen-2-yl)-5-cyclopropyl-phenoxy]ethoxy]cyclobutanecarboxylic acid], the IC50 is 1290 nM.

`O=c1cc(-c2cc(OC(F)(F)F)c(O)cc2OCCO[C@H]2C[C@@H](C(=O)O)C2)oc2c(Cl)cccc12` [Example C090, Cis-3-[2-[2-(8-chloro-4-oxo-chromen-2-yl)-5-hydroxy-4-(trifluoromethoxy)phenoxy]ethoxy]cyclobutanecarboxylic acid]: the IC50 was determined as 6570 nM.

On to `O=C1Cc2cc(OCCO[C@H]3C[C@@H](C(=O)O)C3)c(-c3cc(=O)c4cccc(Cl)c4o3)cc2N1` [Example C091, Cis-3-[2-[6-(8-chloro-4-oxo-chromen-2-yl)-2-oxo-indolin-5-yl]oxyethoxy]cyclobutanecarboxylic acid], for which the IC50 came out at 418 nM.

In the case of `CCOc1ccc(-c2cc(=O)c3ccc(C(F)(F)F)c(Cl)c3o2)c(OCCOC2CC(C(=O)O)C2)c1` (centres unmarked) [Example C097, 3-[2-[2-[8-chloro-4-oxo-7-(trifluoromethyl)chromen-2-yl]-5-ethoxy-phenoxy]ethoxy]cyclobutanecarboxylic acid], the IC50 stood at 1310 nM.
